Data published in US8367733B2 (Vallinex, Inc., priority 2002, dated 2013).
Where two headings read alike, the source gives them in different places.

Legend:
[1] = more potent than capsaicin; cited from earlier work
[2] = cited from earlier work
[3] = system: radiation induced hyperalgesia; details: systemic, cited from earlier work
[4] = system: subjects with osteoarthritis of the knee; assay: Osteoarthritis of the knee safety study (Phase 1): safety, tolerability and VAS pain after intra-articular infiltration; assay type: in vivo, human; details: for patients reporting transient burning pain immediately following instillation: after 2% lignocaine
Protocol: The primary objective of the study was to evaluate the safety and tolerability of intra-articular capsaicin, when co-administered with intra-articular local anesthetic, compared to placebo, in subjects with end-stage osteoarthritis of the knee, already scheduled to receive knee replacements.
Study drug was stored at a temperature between 15° C. and 25° C.
The study was designed to include 16 evaluation subjects. […] Sixteen subjects completed the study.
Patients were treated randomly and in double-blind fashion in four treatment cohorts, with each cohort having a progressively longer interval between the intra-articular administration of study medication and subsequent total knee replacement (2, 4, 7, and 14 days). […] Gross and microscopic pathology analysis was completed for each treatment cohort before the next treatment coort was treated.
Each subject had 3 study visits: a Screening Day (Day −7 to −1), the Treatment Day (Day 0), and a Post-Treatment Day (scheduled for Day +2, +4, +7, or +14). On the Treatment Day the subject was randomized, pre-treatment evaluation was performed. The patients were brought into the procedure room, and a VAS pain score was taken (0 mm—no pain, 100 mm—extreme pain). Once the patient had marked his or her pain on the card, he/she was prepped for knee cannulation. Once the cannula was placed, the patient received by intra-articular infiltration, 3 mg/kg (maximum dose of 200 mg) of 2% lignocaine into the knee scheduled to be replaced.
VAS pain scores as well as verbal reports were taken immediately following administration, as well as prior to knee replacement surgery. No subjects discontinued from the study due to adverse events.
On the Post-Treatment Day, study evaluation was performed followed by the scheduled knee replacement, with intra-operative bone and soft tissue biopsies performed for subsequent examination. […] This therefore left the 3 placebo and 9 active patients from the 4 day, 7 day, and 14 day cohorts.

[5] = system: subjects undergoing transpositional osteotomy (bunionectomy) for hallux valgus deformity; assay: Bunionectomy efficacy study (Phase II), intra-operative infiltration into the wound; assay type: in vivo, human; details: for VAS pain score at operation site (Table 4): 1000 μg into wound, mean +/− SEM, n = 11
Protocol: The primary efficacy endpoint was the proportion of subjects in each treatment group requiring opioid analgesia in the first 24 hours post-operatively. The proportions were compared amongst treatment groups using the Cochran-Haenszel test. Secondary efficacy end points included: i) proportion of subjects in each treatment group requiring opioid analgesia in the first 36 hour period post-operatively (Similarly, the proportions were compared amongst treatment groups using the Cochran-Haenszel test); ii) proportion of subjects in each treatment group requiring opioid analgesia in the 10 day period post-operatively (Similarly, the proportions were compared amongst treatment groups using the Cochran-Haenszel test); iii) time to first usage of opioid analgesia in each treatment group (a survival analysis approach will be used: the product-limit (Kaplan-Meier) method will be applied to time to first usage of opioid analgesia. The median time to first usage of opioid analgesia will be estimated in both treatment groups. Pairwise comparisons will be performed to test for equality of the survival curves between the 2 treatment groups using both the log-rank and the Wilcoxon test); iv) total usage of analgesia in each treatment group (the total usage of analgesia will be compared by an analysis of variance with treatment and center as independent variables. A pairwise comparison will be performed between the treatment groups); and v) VAS assessment of pain at the site of operation in each treatment group (The VAS score at each time point will be compared by an analysis of variance with treatment and center as independent variables. A pairwise comparison will be performed between the treatment groups). […] The efficacy analysis was performed on the data obtained ten days postoperatively. The safety analysis was performed based on the safety data for the entire study, including the 6 week and 12 week follow-up periods. The blind was broken at the time the efficacy analysis was performed. However, the individual treatment assignment was available to the statistical analysis group only. All other personnel involved in the study, including the Investigator, study monitor and proprietary staff, remained blinded until the entire study was completed.
The study was designed to include 40 evaluation subjects. […] Each subject had six (6) study visits: a Screening Day (Day −28 to −1), an Operation Day (Day 0), and four (4) Follow-up visits (scheduled for Days 3, 10 and weeks 6 and 12).
On Operation Day (Day 0) the following was performed: a) Pre-operation: Prior to the initiation of an ankle block, inclusion/exclusion criteria assessment was performed. […] Immediately prior to wound closure, the Investigator slowly dripped the study medication (4 mL) from a syringe into the wound, ensuring even tissue exposure. The wound was then closed according to normal practices and procedures.
In the 24 hours following administration of study medication, vital signs (supine pulse rate and blood pressure) were recorded at 1, 2, 4 and 24 hours post administration. VAS assessment of pain at the operation site was performed at 1, 4, 8, 12 and 24 hours post administration. In those instances where VAS measurements coincide with blood sampling procedures, the VAS assessment was performed first. […] The quantity of each blood sample was 10 mL. Laboratory safety assessments, e.g., haematology, biochemistry, urinalysis were performed at 24 hours post administration. Adverse events were spontaneously reported by the subject and recorded. Rescue analgesia medication was provided to the subject if required (initially diclofenac 50 mg, repeated at 8 hourly intervals if necessary).

[6] = 10, 100, 300 μg intra-articular

Compound: C=C(C)[C@]12C[C@@H](C)[C@@]34O[C@](Cc5ccccc5)(O[C@@H]1[C@@H]3C=C(COC(=O)Cc1ccc(O)c(OC)c1)C[C@]1(O)C(=O)C(C)=C[C@@H]41)O2 [Resiniferatoxin, resiniferatoxin]
- potency compared with capsaicin [1]: 10^3-10^4 fold

Compound: COc1cc(CNC(=O)CCCC/C=C/C(C)C)ccc1O [purified capsaicin, N-(4-hydroxy-3-methoxybenzyl)-8-methylnon-trans-6-enamide]
- solubility in alcohol, ether, benzene and chloroform [2]: freely soluble
- radiation induced hyperalgesia ([3]; final doses of 25 mg/kg or less prior to ultra violet radiation): prevented radiation induced hyperalgesia
- pain threshold ([3]; final doses of 25 mg/kg or less): did not elevate the pain threshold above normal range
- pain threshold ([3]; final doses of 50 mg/kg or greater): pain threshold elevated
- patients reporting transient burning pain immediately following instillation ([4]; 10 μg intra-articular): 0 of 4
- subjects requiring intervention for post-injection (hyper)algesia ([4]; 100 μg dose group (n=4)): 1 subject
- patients reporting transient burning pain immediately following instillation ([4]; 100 μg intra-articular): 1 of 4
- subjects requiring intervention for post-injection (hyper)algesia ([4]; 300 μg dose group (n=4)): 4 subjects
- patients reporting transient burning pain immediately following instillation ([4]; 300 μg intra-articular): 4 of 4
- VAS reduced, prior to administration vs day of surgery ([4]; 9 active patients of the 4, 7 and 14 day cohorts, doses 10-300 μg pooled): 62±14%
- effects on laboratory safety parameters or vital signs [4, 6]: no treatment related effects
- effects on soft tissue, cartilage, or bone upon histopathological examination [4, 6]: no treatment related effects
- gross and microscopic pathology [4, 6]: normal
- signs of erythema, edema, or hemorrhage at the site of injection [4, 6]: no treatment related signs
- systemic side effects [4, 6]: No treatment related systemic side effects were seen
- tolerability [4, 6]: well tolerated at all dose levels
- median decrease from baseline to pre-operative time point in VAS for pain at the target knee, compared with placebo ([4]; all 3 capsaicin dose groups): substantially greater
- average duration of post injection hyperalgesia ([4]; all cases): less than thirty minutes
- onset of post-administration (hyper)algesia after administration ([4]; all episodes, 100 μg and 300 μg): ≤ 5 min
- indication of efficacy on VAS pain ([4]; any of the dose levels (10 μg, 100 μg, 300 μg)): No clear treatment related indication of efficacy
- effect on pain score and use of rescue ([5]; 1000 μg into the wound prior to wound closure): reduced both pain score as well as the use of rescue
- VAS pain score at operation site (Table 4) ([5]; 8 hr): 5.5 +/− 2.3
- VAS pain score at operation site (Table 4) ([5]; 12 hr): 8.2 +/− 3.8
- VAS pain score at operation site (Table 4) ([5]; 24 hr): 1.9 +/− 1.0
- VAS pain score at operation site (Table 4) ([5]; 48 hr): 5.9 +/− 2.5
- study subjects requiring rescue ([5]; 1000 μg prior to wound closure, within 72 hours, n=11, P<0.05 vs placebo): 40%
